Experimental data published in US5089623A, “Certain imidate insecticides” (Imperial Chemical Industries Plc, priority 1990, dated 1992).

Key:
Assay type in all cases: in vivo
[1] = test system: Housefly [Musca domestica]; assay: Housefly insecticidal test (HF); conditions: per 25 female houseflies, 48 hours
[2] = test system: Tobacco Budworm [Heliothis virescens (Fabricius)] eggs; assay: Tobacco budworm egg test (TBW-E); conditions: percent in solution
[3] = test system: Cabbage Looper [Trichoplusia ni (Hubner)]; assay: Cabbage looper test (CL); conditions: second-instar larvae, 3-5 days, percent in solution
[4] = test system: Maize weevil [Sitophilus Zeamais (Motschulsky)]; assay: Maize weevil test (MW); conditions: adult weevils, treated corn seeds, 48 hours, percent in solution
Procedure: The compounds in Tables 1 and 2 above were tested for insecticidal activity using the following testing procedures. LC50 values, based on the results of these tests and calculated according to dosage-mortality curves, are expressed in Table 3.
Maize weevil [Sitophilus Zeamais (Motschulsky)]
Test compounds were diluted in a 50:50 acetone:water solution. Four corn seeds [Zea mays (L.)] which had been immersed in test solutions for 2-3 seconds and allowed to dry were placed in containers together with 10 adult weevils. The containers were covered and kept at a temperature of about 25° C. Mortality was recorded after 48 hours. Test concentrations ranged from 0.01% down to that at which 50% mortalilty occurred. The LC50 values are expressed below in Table 3 under the heading "MW" in terms of percent of the test compound in solution.

| Structure (SMILES) | LC50 HF [1] [µg] | LC50 TBW E [2] [%] | LC50 CL [3] [%] | LC50 MW [4] [%] |
| --- | --- | --- | --- | --- |
| CC(C)C(=Nc1ccc(C(F)(F)F)cc1[N+](=O)[O-])OCc1ccc(F)c(Oc2ccccc2)c1 [Compound 445] | < 100 | > 0.1 | 0.00045 | > 0.01 |
| CC(C)C(=Nc1cccc(I)c1)OCc1cccc(Oc2ccc(Cl)cc2)c1 [Compound 389] | < 100 | > 0.1 | 0.00069 | > 0.01 |
| CC(C)C(=Nc1cccc(OC(F)(F)F)c1)OCc1ccc(F)c(Oc2ccccc2)c1 [Compound 437] | < 100 | 0.025 | 0.00075 | > 0.01 |
| CC(C)C(=Nc1ccc(F)c(F)c1)OCc1cccc(Oc2ccc(Cl)cc2)n1 [Compound 559] | < 100 | 0.017 | 0.00027 | > 0.01 |
| CC(C)C(=Nc1ccc([N+](=O)[O-])c(C(F)(F)F)c1)OCc1cccc(Oc2ccccc2)c1 [Compound 307] | > 100 | 0.08 | 0.002 | > 0.01 |
| CC(C)C(=Nc1ccc(OCC(F)(F)F)c(Cl)c1)OCc1cccc(Oc2ccccc2)c1 [Compound 425] | > 100 | > 0.1 | 0.00075 | > 0.01 |
| CC(C)C(=Nc1ccc(C#N)cc1)OCc1ccc(F)c(Oc2ccc(F)cc2)c1 [Compound 394] | < 100 | 0.05 | 0.00025 | > 0.01 |
| C=C(C)C(=Nc1ccc(C(F)(F)F)cc1)OCc1cccc(Oc2ccccc2)c1 [Compound 430] | < 100 | 0.032 | 0.001 | 0.004 |
| CC(C)C(=Nc1ccc(F)c(Br)c1)OCc1ccc(F)c(Oc2ccc(Cl)cc2)c1 [Compound 379] | < 100 | 0.02 | 0.00075 | > 0.01 |
| COc1ccc(N=C(OCc2ccc(F)c(Oc3ccc(Cl)cc3)c2)C(C)C)cc1Cl [Compound 410] | < 100 | > 0.1 | > 0.1 | > 0.01 |
| CC(C)C(=Nc1ccc(F)c(Br)c1)OCc1cccc(Oc2ccccc2)n1 [Compound 558] | < 100 | > 0.1 | 0.00045 | > 0.01 |
| Fc1ccc(COC(=Nc2ccc(C(F)(F)F)cc2)C2CC2)cc1Oc1ccc(Cl)cc1 [Compound 444] | > 100 | 0.023 | 0.00015 | > 0.01 |
| Cc1ccc(Oc2cccc(COC(=Nc3ccc(C(C)(C)C)cc3)C(C)C)c2)cc1 [Compound 344] | > 100 | > 0.1 | 0.024 | > 0.01 |
| CCc1ccccc1N=C(OCc1cccc(Oc2ccc(F)cc2)c1)C(C)C [Compound 411] | < 100 | > 0.1 | > 0.1 | > 0.01 |
| CC(C)C(=Nc1ccc(F)c(Cl)c1)OCc1cccc(Oc2cccc(Cl)c2)c1 [Compound 203] | 43 | 0.06 | 0.0025 | > 0.01 |
| Cc1cccc(N=C(OCc2ccc(F)c(Oc3ccc(Cl)cc3)c2)C(C)C)c1 [Compound 401] | < 100 | 0.04 | 0.0017 | > 0.01 |
| CC(C)C(=Nc1ccc(OC(F)(F)C(F)Cl)cc1)OCc1ccc(F)c(Oc2ccccc2)c1 (centres unmarked) [Compound 419] | > 100 | > 0.1 | > 0.1 | > 0.01 |
| CC(C)C(=Nc1cccc(OC(F)(F)F)c1)OCc1ccc(F)c(Oc2ccc(Cl)cc2)c1 [Compound 436] | < 100 | < 0.1 | 0.00075 | > 0.01 |
| CC(C)C(=Nc1ccc(OC(F)(F)F)cc1)OCc1cccc(Oc2ccccc2)n1 [Compound 550] | < 100 | > 0.1 | 0.00034 | > 0.01 |
| COc1ccc(N=C(OCc2ccc(F)c(Oc3ccc(F)cc3)c2)C(C)C)cc1Cl [Compound 408] | < 100 | 0.02 | 0.0015 | > 0.01 |
